Assays:
[1] = log P[a] by HPLC on reversed-phase column (C18), LC-UV in the acidic range; assay type: physicochemical; details: 0.9 ml/l formic acid in water and 1.0 ml/l formic acid in acetonitrile, gradient 10% to 95% acetonitrile, EEC Directive 79/831 Annex V.A8
Procedure: (§1) The log values were determined according to EEC Directive 79/831 Annex V.A8 by HPLC (high-performance liquid chromatography) on a reversed-phase column (C18) using the following methods: The log P[a] value is determined by LC-UV measurement in the acidic range using 0.9 mill formic acid in water and 1.0 ml/l formic acid in acetonitrile as mobile phases (linear gradient from 10% acetonitrile to 95% acetonitrile). Calibration was carried out using a homologous series of straight-chain alkan-2-ones (having 3 to 16 carbon atoms) with known log values. The values between successive alkanones are determined by linear regression.

[2] = log P[n] by HPLC on reversed-phase column (C18), LC-UV in the neutral range; assay type: physicochemical; details: 79 mg/l ammonium carbonate in water and acetonitrile, gradient 10% to 95% acetonitrile, EEC Directive 79/831 Annex V.A8
Procedure: as §1, with “P[n]” for “P[a]”, “neutral” for “acidic”, “79 mg/l ammonium carbonate” for “0.9 mill formic acid”, “and” for “and 1.0 ml/l formic acid in”

Row | SMILES | chromatographic logP [1] | chromatographic logP [2]
1 | CCSc1c(-c2nc3cc(C(F)(F)F)nnc3n2C)nc(Br)n1C [Example 1, 6-[2-bromo-5-(ethylsulfanyl)-1-methyl-1H-imidazol-4-yl]-7-methyl-3-(trifluoromethyl)-7H-imidazo[4,5-]pyridazine] | 3.14 | 3.01
2 | CCSc1c(-c2nc3cc(C(F)(F)C(F)(F)F)nnc3n2C)nc(-c2ccc(C#N)cn2)n1C [Example 6, 6-{5-(ethylsulfanyl)-1-methyl-4-[7-methyl-3-(pentafluoroethyl)-7H-imidazo[4,5-c]pyridazin-6-yl]-1H-imidazol-2-yl}nicotinonitrile] | 4.32 | 4.2
3 | CCSc1c(-c2nc3cc(C(F)(F)C(F)(F)F)nnc3n2C)nc(-c2ccc(Cl)nn2)n1C [Example 5, 6-[2-(6-chloropyridazin-3-yl)-5-(ethylsulfanyl)-1-methyl-1H-imidazol-4-yl]-7-methyl-3-(pentafluoroethyl)-7H-imidazo[4,5-c]pyridazine] | 4.13 | 4.01

The remaining lines, values ahead:

Row | chromatographic logP [1] | chromatographic logP [2] | SMILES
4 | 3.8 | 3.66 | CCSc1c(-c2nc3cc(C(F)(F)C(F)(F)F)nnc3n2C)nc(Br)n1C [Example 2, 6-[2-bromo-5-(ethylsulfanyl)-1-methyl-1H-imidazol-4-yl]-7-methyl-3-(pentafluoroethyl)-7H-imidazo[4,5-c]pyridazine]
5 | 3.63 | 3.51 | CCSc1c(-c2nc3cc(C(F)(F)C(F)(F)F)ncc3n2C)nc(Br)n1C [Example 4, 2-[2-bromo-5-(ethylsulfanyl)-1-methyl-1H-imidazol-4-yl]-3-methyl-6-(pentafluoroethyl)-3H-imidazo[4,5-c]pyridine]
6 | 2.8 | 2.76 | CCS(=O)(=O)c1c(-c2nc3cc(C(F)(F)C(F)(F)F)nnc3n2C)nc(Br)n1C [Example 3, 6-[2-bromo-5-(ethylsulfonyl)-1-methyl-1H-imidazol-4-yl]-7-methyl-3-(pentafluoroethyl)-7H-imidazo[4,5-c]pyridazine]
